Experimental data from patent US5985922A, “Amino acid derivatives and active oxygen-resisting agent” (Ajinomoto Co., Inc., priority 1997, dated 1999).

Tests used:
[1] = system: lipid peroxidation; experiment: Test for an Active Oxygen Resistance (inhibition of lipid peroxidation in mouse brain homogenate); format: biochemical; settings: whole brain homogenate, C57 black mouse, 20-mM phosphate buffer; 37° C., 30 minutes
Description: The test was conducted according to the method described in Method in Enzymol., vol. 52, p. […] The outline of the test method was that a homogenized 20-mM phosphate buffer of the whole brain of a C57 black mouse was prepared, a test substance was added thereto, and an absorbance of the mixture was measured.
Percent peroxidation inhibition (%)--
A1 : Absorbance in the addition of the test compound
A2 : Absorbance before the addition of the test compound
A3 : Absorbance when the test compound is not added, nor is the heating at 37° C. for 30 minutes conducted.

[2] = Test for a Solubility (oil solvents, 1% by weight); format: physicochemical
Description: The solubility in the solvent shown in Table 2 when the concentration was 1% by weight was evaluated.

| Solubility in liquid paraffin [2] | Solubility in olive oil [2] | SMILES | Percent inhibition of lipid peroxidation [1] |
| --- | --- | --- | --- |
|  |  | O=C(O)CC(O)(CC(=O)O)C(=O)O [Citric acid, reference compound] | -15% |
| insoluble | insoluble | C[C@H](NCc1ccccc1O)C(=O)O [N-(2-hydroxybenzyl)-L-alanine, reference compound] | 6% |
| insoluble | insoluble | O=C(O)CNCc1ccccc1O [N-(2-hydroxybenzyl)-L-glycine, reference compound] |  |
| insoluble | insoluble | O=C(O)[C@H](Cc1ccccc1)NCc1ccccc1O [N-(2-hydroxybenzyl)-L-phenylalanine, reference compound] |  |
| soluble | soluble | CCCCCCCCCCCCOC(=O)[C@H](C)NCc1ccccc1O [Synthesis Example 1, N-(2-hydroxybenzyl)-L-alanine lauryl ester] | 39% |
| soluble | soluble | CCCCCCCCCCCCCCCCCCOC(=O)[C@H](C)NCc1ccccc1O [Synthesis Example 2, N-(2-hydroxybenzyl)-L-alanine stearyl ester] | 16% |
| soluble | soluble | CCCCCCCCCCCCOC(=O)CNCc1ccccc1O [Synthesis Example 3, N-(2-hydroxybenzyl)glycine lauryl ester] |  |
| soluble | soluble | CCCCCCCCCCCCOC(=O)[C@H](Cc1ccccc1)NCc1ccccc1O [Synthesis Example 4, N-(2-hydroxybenzyl)-L-phenylalanine lauryl ester] |  |
| gelling | soluble | CCCCCCCCCCCCNC(=O)[C@H](C)NCc1ccccc1O [Synthesis Example 5, N-(2-hydroxybenzyl)-L-alanine laurylamide] | 80% |
| gelling | soluble | CCCCCCCCCCCCCCCCCCNC(=O)[C@H](C)NCc1ccccc1O [Synthesis Example 6, N-(2-hydroxybenzyl)-L-alanine stearylamide] | 17% |
| gelling | soluble | CCCCCCCCCCCCNC(=O)CNCc1ccccc1O [Synthesis Example 7, N-(2-hydroxybenzyl)glycine laurylamide] |  |
| gelling | soluble | CCCCCCCCCCCCNC(=O)[C@H](Cc1ccccc1)NCc1ccccc1O [Synthesis Example 8, N-(2-hydroxybenzyl)phenylalanine laurylamide] |  |
|  |  | O=C1O[C@H]([C@@H](O)CO)C(O)=C1O [Vitamin C, reference compound] | -23% |
